The text below walks through data of patent US10006079B2, “Method for establishing the anti-diabetic potential of bitter melon” (Glykon Technologies Group, LLC, priority 2013, dated 2018).

One data set deals with Normal Rats. The data set is described as follows: Hypoglycemic activity of bitter melon extracts in normal rats (blood glucose after oral glucose challenge). Format: in vivo, Wistar Albino male rats. The conditions noted are these: for hypoglycemia in normal animals (glucose <70 mg/dL in this model): 50 mg/kg. As to the method:
(§1) This and related experiments subsequently were published (Clouatre et al., 2011.) Wistar Albino male rats 12 weeks of age were obtained from St John's Pharmacy College Animal House, India and handled according to institutional practices. […] All rats were fed a standard rat chow diet ad libitum from Sai Durga Feed, Bangalore; water also was supplied ad libitum. Following 7 days acclimatization, one half of the rats were fasted for 24 hours and then injected with freshly prepared STZ in citrate buffer [[…]] (45 mg/kg, i.p). After one week, rats with marked hyperglycemia (fasting blood glucose >300 mg/dL) were used as the diabetic rats.
(§2) Extracts 1-4 were produced and preserved via different methods attempting to retain efficacies reported for macerated fresh fruit preparations. EX-1 was a vacuum-dried powder of the macerated extract of fresh fruit (˜25:1). EX-2 was a freeze-dried powder of the macerated extract of fresh fruit (˜25:1). EX-3 was a spray-dried powder of the macerated extract of fresh fruit (˜25:1). EX-4 was a vacuum-dried powder of the macerated extract of fresh fruit adsorbed onto powdered vacuum-dried fresh fruit (˜15:1). Dosages of the extracts (mg/kg bodyweight/day) were 50 and 250 mg/kg as indicated. After an overnight fast, the extract samples suspended in 5% gum acacia were administered to the animals by gastric intubations with a syringe.
(§3) For test purposes, glucose was given orally by intubation as a 40% solution (1 g/kg body wt). Blood samples following the glucose challenge were collected for the measurement of blood glucose from the tail vein at 0, 1, 2, 3 and 4 hrs. The blood glucose level was determined by using an electronic glucometer (Accu Check, Roche Diagnostic).
First, the hypoglycemic activity of bitter melon extracts was studied in normal rats.

Data set [1] concerns streptozotocin-induced diabetic rats. Briefly: Anti-hyperglycemic activity of bitter melon extracts in streptozotocin-induced diabetic rats (blood glucose). Format: in vivo, Wistar Albino male rats. Conditions: extracts 250 mg/kg, metformin 150 mg/kg. How it is done:
as §1, §2, §3
Next, the anti-hyperglycemic activity of bitter melon extracts was studied in streptozotocin-induced diabetic rats described above.

For the compound `CN(C)C(=N)N=C(N)N` [Metformin, metformin], the entries for the “hypoglycemia in normal animals (glucose <70 mg/dL in this model)” value in the data set on Normal Rats and with Normal Rats (listed as metformin) were “resulted in hypoglycemia” and “led to hypoglycemia”, respectively. Further, the “Blood Glucose Level, Treatment +1 hr” value in the data set on Normal Rats (50 mg/kg oral, +1 hr) worked out at 85.5 ± 1.8 mg %; in data set [1] (diabetic rats, +1 hr) it was 271.6 ± 4.0 mg %. Further, the “Blood Glucose Level, Treatment +2 hr” value with Normal Rats (50 mg/kg oral, +2 hr) is on record as 73.5 ± 1.2 mg %; in data set [1] (diabetic rats, +2 hr), 214.4 ± 3.2 mg %. The “percent reduction in blood sugar level compared with initial glucose value (0 h)” value in the data set on Normal Rats (50 mg/kg oral, +2 hr) is on record as “(34.9) percent”; with Normal Rats (50 mg/kg oral, +3 hr), “(46.4) percent”; in the data set with Normal Rats (50 mg/kg oral, +4 hr), “(53.5) percent”. The “Blood Glucose Level, Treatment +3 hr” value in the data set on Normal Rats (50 mg/kg oral, +3 hr) came to 66.5 ± 1.2 mg %; in data set [1] (diabetic rats, +3 hr), 176.0 ± 6.7 mg %. Also, the “Blood Glucose Level, Treatment +4 hr” value with Normal Rats (50 mg/kg oral, +4 hr) came out at 52.5 ± 0.7 mg %; in data set [1] (diabetic rats, +4 hr), 153.0 ± 3.3 mg %. Further, the “Blood Glucose Level, Initial (0 hr)” value in the data set with Normal Rats (50 mg/kg oral, initial value 0 hr) was found to be 93.3 ± 1.3 mg %; in data set [1] (diabetic rats, initial value 0 hr), 329.2 ± 5.3 mg %. Further, the “reduced blood glucose, percent” value in data set [1] (diabetic animals, at 4 hours) is 53.52 percent (mg %). The “percent reduction of blood sugar level compared with initial level of blood glucose (0 h)” value in data set [1] (diabetic rats, +2 hr) is reported as “(34.9) percent”; in data set [1] (diabetic rats, +3 hr), “(46.4) percent”; in data set [1] (diabetic rats, +4 hr), “(53.5) percent”.
